Measurements published in US11814376B2, “Hepatitis b core protein modulators” (Assembly Biosciences, Inc., priority 2015, dated 2023).

What was measured:
[1] = tested on: HBV viral load in AD38 cells; experiment: Viral load production in AD38 cells, quantitative PCR of the core sequence in supernatant; format: cell-based; conditions: Hepatitis B virus, 144 h, 10 μM compound, 6 days at 37° C., supernatant qPCR, relative to DMSO control; read-out: AD38 Viral Load (%) (VL with cmpd/VL in DMSO control) at 10 μM
AD38 cells = experiment: Viability of AD38 cells (Promega CellTiter-Glo); format: cell-based; conditions: 10 μM compound, 6 days, CellTiter-Glo luminescence normalized to DMSO control (100%)
Procedure, shortened: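 After 6 days of compound exposure at 37° C (compound added as 10× solution in 10% DMSO; 50,000 cells/well, collagen-coated), medium was replaced with tetracycline-free DMEM/F12, 2% FBS, 1% DMSO. CellTiter-Glo luminescence was then recorded and normalized to DMSO-treated wells as 100% viability.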

Structure (SMILES): O=C(NCc1cnc(-c2ccc(SCCCN3CCOCC3)cc2)s1)c1ccc2c(c1)NC(=O)c1ccccc1S2(=O)=O [compound 11066, N-((2-(4-((3-morpholinopropyl)thio)phenyl)thiazol-5-yl)methyl)-11-oxo-10, 11-dihydrodibenzo [b, f] [1, 4] thiazepine-8-carboxamide 5,5-dioxide]
- activity at 10 µM [1]: 0.4%
- AD38 Viability Normalized Result (cmpd/DMSO %) at 10 μM (AD38 cells): 104%

Structure (SMILES): COc1ccc(-c2ncc(CNC(=O)c3ccc4c(c3)NC(=O)c3ccccc3S4(=O)=O)s2)cn1 [compound 1666, N-((2-(6-methoxypyridin-3-yl)thiazol-5-yl)methyl)-11-oxo-10, 11-dihydrodibenzo [b, f] [1, 4] thiazepine-8-carboxamide 5,5-dioxide]
- activity at 10 µM [1]: 0.9%
- AD38 Viability Normalized Result (cmpd/DMSO %) at 10 μM (AD38 cells): 98%

Structure (SMILES): CN(C)c1ccc(-c2ncc(CNC(=O)c3ccc4c(c3)NC(=O)c3ccccc3S4(=O)=O)s2)cc1 [compound 1645]
- activity at 10 µM [1]: 6.7%
- AD38 Viability Normalized Result (cmpd/DMSO %) at 10 μM (AD38 cells): 101%

Structure (SMILES): O=C(NCc1cnc(-c2ccc(OCCCN3CCC[C@H]3C(=O)O)cc2)s1)c1ccc2c(c1)NC(=O)c1ccccc1S2(=O)=O [compound 11106, (3-(4-(5-((5,5-dioxido-11-oxo-10, 11-dihydrodibenzo [b, f] [1, 4]thiazepine-8-carboxamido)methyl)thiazol-2-yl)phenoxy)propyl)-L-proline]
- activity at 10 µM [1]: 3.3%
- AD38 Viability Normalized Result (cmpd/DMSO %) at 10 μM (AD38 cells): 97%

Structure (SMILES): CN(C)C(=O)c1ccc(-c2ncc(CNC(=O)c3ccc4c(c3)NC(=O)c3ccccc3S4(=O)=O)s2)cc1 [compound 1944]
- activity at 10 µM [1]: 2.5%
- AD38 Viability Normalized Result (cmpd/DMSO %) at 10 μM (AD38 cells): 93%

Structure (SMILES): O=C(O)CSc1ncc(CNC(=O)c2ccc3c(c2)NC(=O)c2ccccc2O3)s1 [compound 1616, 2-((5-((11-oxo-10, 11-dihydrodibenzo [b, f] [1, 4]oxazepine-8-carboxamido)methyl)thiazol-2-yl)thio) acetic acid]
- activity at 10 µM [1]: 105%
- AD38 Viability Normalized Result (cmpd/DMSO %) at 10 μM (AD38 cells): 103%

Structure (SMILES): CN(C)CCOc1ccc(-c2ncc(CNC(=O)c3ccc4c(c3)NC(=O)c3ccccc3O4)s2)cc1 [compound 1621]
- activity at 10 µM [1]: 25.9%
- AD38 Viability Normalized Result (cmpd/DMSO %) at 10 μM (AD38 cells): 81%

Structure (SMILES): Cc1nc(C)c(CNC(=O)c2ccc3c(c2)NC(=O)c2ccccc2O3)s1 [compound 1769]
- activity at 10 µM [1]: 43.3%
- AD38 Viability Normalized Result (cmpd/DMSO %) at 10 μM (AD38 cells): 101%

Structure (SMILES): Cc1ncc(CNC(=O)c2ccc3c(c2C)NC(=O)c2ccccc2S3)s1 [compound 1535]
- activity at 10 µM [1]: 0.8%
- AD38 Viability Normalized Result (cmpd/DMSO %) at 10 μM (AD38 cells): 84%

Structure (SMILES): O=C(NCc1cnc(-c2ccc(F)cc2)s1)c1ccc2c(c1)NC(=O)c1ccccc1S2 [compound 1556]
- activity at 10 µM [1]: 1.6%
- AD38 Viability Normalized Result (cmpd/DMSO %) at 10 μM (AD38 cells): 105%

Structure (SMILES): Cl.NCCCSc1ccc(-c2ncc(CNC(=O)c3ccc4c(c3)NC(=O)c3ccccc3S4(=O)=O)s2)cc1 [compound 11007, N-((2-(4-((3-aminopropyl)thio)phenyl)thiazol-5-yl)methyl)-11-oxo-10, 11-dihydrodibenzo [b, f] [1, 4] thiazepine-8-carboxamide 5,5-dioxide hydrochloride]
- activity at 10 µM [1]: 2%
- AD38 Viability Normalized Result (cmpd/DMSO %) at 10 μM (AD38 cells): 101%

Structure (SMILES): CN(C)CCCOc1ccc(-c2ncc(CNC(=O)c3ccc4c(c3)NC(=O)c3ccccc3S4(=O)=O)s2)nc1 [compound 11011, N-((2-(5-(3-(dimethylamino)propoxy)pyridin-2-yl)thiazol-5-yl)methyl)-11-oxo-10, 11-dihydrodibenzo [b, f] [1, 4] thiazepine-8-carboxamide 5,5-dioxide]
- activity at 10 µM [1]: 5.3%
- AD38 Viability Normalized Result (cmpd/DMSO %) at 10 μM (AD38 cells): 98%

Structure (SMILES): O=C(NCc1cnc(C(F)(F)F)s1)c1ccc2c(c1)NC(=O)c1ccccc1[S+]2[O-] (stereo not shown) [compound 1772]
- activity at 10 µM [1]: 7.1%
- AD38 Viability Normalized Result (cmpd/DMSO %) at 10 μM (AD38 cells): 109%

Structure (SMILES): O=C(NCc1cnc(-c2ccc(O)cc2)s1)c1ccc2c(c1)NC(=O)c1ccccc1O2 [compound 1618]
- activity at 10 µM [1]: 1.9%
- AD38 Viability Normalized Result (cmpd/DMSO %) at 10 μM (AD38 cells): 100%
